Measurements reported in US20090318468A1, “PYRAZOLE COMPOUNDS 436” (AstraZeneca AB, priority 2008, published 2009).

Molecular target: T1, human cytochrome P450 (CYP) 2C19 (Homo sapiens, UniProt P33261)
T1 construct: made in house; host or cells: yeast (microsomal fraction)
Assay: Cytochrome P450 Inhibition Assay, CYP 2C19
Format: in vitro ADME
Settings: expected IC50 range of known inhibitor (positive control); read-out: IC50 range (μM), CYP 2C19
Procedure: Cytochrome P450 Inhibition Assay
The inhibitory potential (IC50) of test compounds against 5 human cytochrome P450 (CYP) isoforms (1A2, 2C9, 2C19, 3A4 and 2D6) was assessed using an automated fluorescent end point in vitro assay modified from Crespi (Crespi and Stresser, J Pharmacol Toxicol Methods 2000, 44: 325-331). Microsomal subcellular fractions prepared from Yeast cell lines expressing each human CYP isoform were used as an enzyme source in this assay. The activity of the 5 major human CYPs was determined from the biotransformation of a number of coumarin substrates to fluorescent metabolites, in the presence of NADPH. […] Stock solutions of each CYP, with its respective substrate, were prepared in phosphate buffer pH 7.4 (see Table 1) and 178 μl was added to the well of a black solid, flat bottom, 300 μl 96 well microtitre plate (Corning Costar). […] After pre-incubating at 37° C. for 5 min the reactions were started with addition of NADPH (20 μl, concentration shown in Table 1). The final solvent content in each incubation was <=2% (1% from the test compound and a maximum of 1% from the substrate). The appropriate solvent controls and substrate blanks were included in each experiment to assess control activity and identify any inherent fluorescence due to the test compounds. In addition, known inhibitors of each CYP were included as positive controls (see Table 3 for inhibitor concentrations and expected IC50 ranges). The reactions were stopped at defined timepoints (see Table 1) by quenching with 100 μl of solvent (acetonitrile:0.5M Tris buffer 80:20 v/v). The plates were read on a fluorimeter (Spectrafluor Plus) at the appropriate excitation and emission wavelengths (listed in Table 2) and the percent activity, corrected for control, was plotted against the test compound concentration.

T1 sequence (P33261 whole entry): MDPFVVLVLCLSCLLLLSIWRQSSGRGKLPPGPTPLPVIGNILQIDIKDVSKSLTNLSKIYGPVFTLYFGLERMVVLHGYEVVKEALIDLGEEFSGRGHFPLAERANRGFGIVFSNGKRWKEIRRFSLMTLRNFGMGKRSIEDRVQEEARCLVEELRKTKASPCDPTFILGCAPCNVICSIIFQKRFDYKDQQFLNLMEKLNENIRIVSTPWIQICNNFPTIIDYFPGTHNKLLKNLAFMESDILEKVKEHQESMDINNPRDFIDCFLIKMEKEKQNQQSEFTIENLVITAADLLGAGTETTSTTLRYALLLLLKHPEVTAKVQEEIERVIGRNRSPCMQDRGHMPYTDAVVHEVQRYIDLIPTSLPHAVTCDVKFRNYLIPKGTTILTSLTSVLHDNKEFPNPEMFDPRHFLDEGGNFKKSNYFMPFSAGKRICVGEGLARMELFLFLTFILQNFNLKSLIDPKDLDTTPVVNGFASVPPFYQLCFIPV

Question: `COc1ccc2[nH]c([S+]([O-])Cc3ncc(C)c(OC)c3C)nc2c1` (stereo not shown) [Omeprazole, reference compound] was tested. Which IC50 did it give?
Answer: Its IC50 is 1.5 to 4.6 µM.
